From patent EP4603105A1, “PHARMACEUTICAL COMPOSITION CONTAINING CYCLIC COMPOUND HAVING SELECTIVE KRAS INHIBITORY EFFECT AGAINST HRAS AND NRAS” (CHUGAI SEIYAKU KABUSHIKI KAISHA, priority 2022, dated 2024) come the findings set out here.

The target in test [1] is GDP-bound NRAS wild-type protein (Homo sapiens, UniProt P01111). As to the kind of experiment: Binding to NRAS by surface plasmon resonance (SPR), KD and KD ratio to KRAS. The conditions noted are these: ratio of KD for GDP-bound NRAS wild-type protein to KD for KRAS. Put shortly:
(§1)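 Biotinylated GDP-bound RAS was captured at about 100–300 RU. Running buffer: HBS pH 7.4, 10 mM MgCl2, 10 µM GDP, 1 mM DTT, 0.01% Tween 20, 4% DMSO.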
In general terms: Surface plasmon resonance follows binding to a sensor surface in real time, without labels.

The target of another test is HRAS wild-type protein (Homo sapiens, UniProt P01112). As to the kind of experiment: Binding to HRAS by surface plasmon resonance (SPR), KD and KD ratio to KRAS. The conditions noted are these: ratio of KD for HRAS wild-type protein to KD for KRAS. Summed up: as §1
Sequence of HRAS wild-type protein (P01112 whole entry): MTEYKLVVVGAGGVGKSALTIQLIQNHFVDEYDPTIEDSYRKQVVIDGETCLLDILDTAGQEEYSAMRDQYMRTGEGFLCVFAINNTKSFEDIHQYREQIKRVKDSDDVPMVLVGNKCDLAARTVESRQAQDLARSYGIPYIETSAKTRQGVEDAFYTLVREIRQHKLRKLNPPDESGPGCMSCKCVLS
The subject of test [2] is human lung cancer strain NCI-H441. It is filed as cell-based. Put shortly: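 Step one: dispense the test compound in serial DMSO dilutions. Step three: add the reagent and measure […].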

Sequence of GDP-bound NRAS wild-type protein (P01111 whole entry): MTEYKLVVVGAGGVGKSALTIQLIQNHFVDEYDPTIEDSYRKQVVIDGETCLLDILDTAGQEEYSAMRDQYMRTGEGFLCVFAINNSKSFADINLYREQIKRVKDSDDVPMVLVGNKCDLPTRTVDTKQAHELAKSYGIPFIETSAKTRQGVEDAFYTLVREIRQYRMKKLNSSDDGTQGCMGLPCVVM

Broadly, the IC50 is the midpoint of a concentration-inhibition curve. Take `CCO[C@H]1CCN2C(=O)[C@H](CCc3cc(F)c(C(F)(F)F)c(F)c3)NC(=O)CN(C)C(=O)[C@H](Cc3ccc(C(F)(F)F)cc3)N3CCCC[C@@H](C3=O)N(C)C(=O)CN(C)C(=O)[C@H]([C@@H](C)CC)NC(=O)[C@H](CC(C)C)N(C)C(=O)C[C@@H](C(=O)N3CCOCC3)N(C)C(=O)[C@H](C3CCCC3)N(C)C(=O)C3(CCC3)NC(=O)[C@H]12` [PP1076]: the “NRAS /KRAS” value in test [1] was “B (a compound having 3 or more and less than 10 is denoted as B)”. In addition, on HRAS wild-type protein, the “HRAS /KRAS” value was “B (a compound having 3 or more and less than 10 is denoted as B)”. This compound yielded an IC50 in test [2] of 4.6 nM.
Regarding `CCCO[C@H]1CCN2C(=O)[C@H](CCc3cc(F)c(C(F)(F)F)c(F)c3)NC(=O)CN(C)C(=O)[C@H](Cc3ccc(C(F)(F)F)cc3)N3CCCC[C@@H](C3=O)N(C)C(=O)CN(C)C(=O)[C@H]([C@@H](C)CC)NC(=O)[C@H](CC(C)C)N(C)C(=O)C[C@@H](C(=O)N3CCOCC3)N(C)C(=O)[C@H](C3CCCC3)N(C)C(=O)C3(CCC3)NC(=O)[C@H]12` [PP1077], the “NRAS /KRAS” value in test [1] was “B (a compound having 3 or more and less than 10 is denoted as B)”. At HRAS wild-type protein, the “HRAS /KRAS” value is “B (a compound having 3 or more and less than 10 is denoted as B)”. Besides, the IC50 in test [2] stood at 14.9 nM.
`CC[C@H](C)[C@@H]1NC(=O)[C@H](CC(C)C)N(C)C(=O)C[C@@H](C(=O)N2CCOCC2)N(C)C(=O)[C@H](C2CCCC2)N(C)C(=O)C2(CCC2)NC(=O)[C@@H]2[C@H](OC)CCN2C(=O)[C@H](CCc2cc(F)c(C(F)(F)F)c(F)c2)NC(=O)CN(C)C(=O)[C@H](Cc2ccc(C(F)(F)F)cc2)N2CCCC[C@@H](C2=O)N(C)C(=O)CN(C)C1=O` [PP1078]: in test [1], the “NRAS /KRAS” value was “B (a compound having 3 or more and less than 10 is denoted as B)”. In addition, on HRAS wild-type protein, the “HRAS /KRAS” value is “B (a compound having 3 or more and less than 10 is denoted as B)”. Further, the IC50 in test [2] worked out at 610 nM.
`CCO[C@@H]1CCN2C(=O)[C@H](CCc3cc(F)c(C(F)(F)F)c(F)c3)NC(=O)CN(C)C(=O)[C@H](Cc3ccc(C(F)(F)F)cc3)N3CCCC[C@@H](C3=O)N(C)C(=O)CN(C)C(=O)[C@H]([C@@H](C)CC)NC(=O)[C@H](CC(C)C)N(C)C(=O)C[C@@H](C(=O)N3CCOCC3)N(C)C(=O)[C@H](C3CCCC3)N(C)C(=O)C3(CCC3)NC(=O)[C@H]12` [PP1079]: the “NRAS /KRAS” value in test [1] is “B (a compound having 3 or more and less than 10 is denoted as B)”. Further, the “HRAS /KRAS” value on HRAS wild-type protein was “B (a compound having 3 or more and less than 10 is denoted as B)”. This compound returned an IC50 in test [2] of 27.2 nM.
Take `CCCO[C@@H]1CCN2C(=O)[C@H](CCc3cc(F)c(C(F)(F)F)c(F)c3)NC(=O)CN(C)C(=O)[C@H](Cc3ccc(C(F)(F)F)cc3)N3CCCC[C@@H](C3=O)N(C)C(=O)CN(C)C(=O)[C@H]([C@@H](C)CC)NC(=O)[C@H](CC(C)C)N(C)C(=O)C[C@@H](C(=O)N3CCOCC3)N(C)C(=O)[C@H](C3CCCC3)N(C)C(=O)C3(CCC3)NC(=O)[C@H]12` [PP1080]: in test [1], the “NRAS /KRAS” value is “B (a compound having 3 or more and less than 10 is denoted as B)”. Also, at HRAS wild-type protein, the “HRAS /KRAS” value is “B (a compound having 3 or more and less than 10 is denoted as B)”. In addition, the IC50 in test [2] worked out at 39.2 nM.
Take `CC[C@H](C)[C@@H]1NC(=O)[C@H](CC(C)C)N(C)C(=O)C[C@@H](C(=O)N2CCOCC2)N(C)C(=O)[C@H](C2CCCC2)N(C)C(=O)C2(CCC2)NC(=O)[C@@H]2[C@H](OC)CCN2C(=O)[C@H](CCc2cc(F)c(C(F)(F)F)c(F)c2)NC(=O)CN(C)C(=O)[C@H](Cc2ccc(C(F)(F)F)cc2)N2CCCC[C@@H](C2=O)N(C)C(=O)CN(C)C1=O` [PP1084]: the “NRAS /KRAS” value in test [1] is “C (A compound having a KD ratio of 0.1 or more and less than 3 is denoted as C)”. On HRAS wild-type protein, the “HRAS /KRAS” value is “B (a compound having 3 or more and less than 10 is denoted as B)”. The compound further returned an IC50 in test [2] of 83.9 nM.
On to `CC[C@H](C)[C@@H]1NC(=O)[C@H](CC(C)C)N(C)C(=O)C[C@@H](C(=O)N2CCOCC2)N(C)C(=O)[C@H](C2CCCC2)N(C)C(=O)C2(CCC2)NC(=O)[C@@H]2[C@H](OC)CCN2C(=O)[C@H](CCc2cc(F)c(C(F)(F)F)c(F)c2)NC(=O)CN(C)C(=O)[C@H](Cc2ccc(C(F)(F)F)cc2)N2CCCCC[C@@H](C2=O)N(C)C(=O)CN(C)C1=O` [PP1085], for which the “NRAS /KRAS” value in test [1] is “A (a compound having 10 or more and less than 20 is denoted as A)”. For the same compound, on HRAS wild-type protein, the “HRAS /KRAS” value was “A (a compound having 10 or more and less than 20 is denoted as A)”. The compound also showed an IC50 in test [2] of 590 nM.
Take `CCO[C@@H]1C[C@H]2C(=O)NC3(CCC3)C(=O)N(C)[C@@H](C3CCCCC3)C(=O)N(C)[C@H](C(=O)N(C)C)CC(=O)N(C)[C@@H](CC)C(=O)N[C@@H]([C@@H](C)CC)C(=O)N(C)CC(=O)N(C)[C@H]3C/C=C\CCN(C3=O)[C@@H](Cc3ccc(C(F)(F)F)cc3)C(=O)N(C)CC(=O)N[C@@H](CCc3cc(F)c(C(F)(F)F)c(F)c3)C(=O)N2C1` [PP1086]: the “NRAS /KRAS” value in test [1] was “AA (a compound having 20 or more is denoted as AA)”. The “HRAS /KRAS” value at HRAS wild-type protein is “A (a compound having 10 or more and less than 20 is denoted as A)”. Also, the IC50 in test [2] came out at 22.4 nM.
With `CCO[C@@H]1C[C@H]2C(=O)NC3(CCC3)C(=O)N(C)[C@@H]([C@@H](C)CC)C(=O)N(C)[C@H](C(=O)N(C)C)CC(=O)N(C)[C@@H](CC)C(=O)N[C@@H]([C@@H](C)CC)C(=O)N(C)CC(=O)N(C)[C@H]3C/C=C\CCN(C3=O)[C@@H](Cc3ccc(C(F)(F)F)cc3)C(=O)N(C)CC(=O)N[C@@H](CCc3cc(F)c(C(F)(F)F)c(F)c3)C(=O)N2C1` [PP1087], the “NRAS /KRAS” value in test [1] was “A (a compound having 10 or more and less than 20 is denoted as A)”. In addition, the “HRAS /KRAS” value at HRAS wild-type protein was “A (a compound having 10 or more and less than 20 is denoted as A)”. In addition, inhibition in test [2] was half-maximal at 40.4 nM (IC50).
Regarding `CCO[C@@H]1C[C@H]2C(=O)NC3(CCC3)C(=O)N(C)[C@@H](C(C)C)C(=O)N(C)[C@H](C(=O)N(C)C)CC(=O)N(C)[C@@H](CC)C(=O)N[C@@H]([C@@H](C)CC)C(=O)N(C)CC(=O)N(C)[C@H]3C/C=C\CCN(C3=O)[C@@H](Cc3ccc(C(F)(F)F)cc3)C(=O)N(C)CC(=O)N[C@@H](CCc3cc(F)c(C(F)(F)F)c(F)c3)C(=O)N2C1` [PP1088], the “NRAS /KRAS” value in test [1] was “A (a compound having 10 or more and less than 20 is denoted as A)”. Further, the “HRAS /KRAS” value at HRAS wild-type protein was “A (a compound having 10 or more and less than 20 is denoted as A)”. The compound also showed a half-inhibitory concentration (IC50) in test [2] of 195 nM.
With `CCO[C@@H]1C[C@H]2C(=O)NC3(CCC3)C(=O)N(C)[C@@H](CC(C)C)C(=O)N(C)[C@H](C(=O)N(C)C)CC(=O)N(C)[C@@H](CC)C(=O)N[C@@H]([C@@H](C)CC)C(=O)N(C)CC(=O)N(C)[C@H]3C/C=C\CCN(C3=O)[C@@H](Cc3ccc(C(F)(F)F)cc3)C(=O)N(C)CC(=O)N[C@@H](CCc3cc(F)c(C(F)(F)F)c(F)c3)C(=O)N2C1` [PP1089], in test [1], the “NRAS /KRAS” value is reported as “AA (a compound having 20 or more is denoted as AA)”. Moreover, on HRAS wild-type protein, the “HRAS /KRAS” value is “A (a compound having 10 or more and less than 20 is denoted as A)”. In test [2], the midpoint of inhibition, the IC50, lay at 57.3 nM.
Turning to `CCO[C@@H]1C[C@H]2C(=O)NC3(CCC3)C(=O)N(C)[C@@H](C3CCCC3)C(=O)N(C)[C@H](C(=O)N3CCCC3)CC(=O)N(C)[C@@H](CC)C(=O)N[C@@H]([C@@H](C)CC)C(=O)N(C)CC(=O)N(C)[C@H]3C/C=C\CCN(C3=O)[C@@H](Cc3ccc(C(F)(F)F)cc3)C(=O)N(C)CC(=O)N[C@@H](CCc3cc(F)c(C(F)(F)F)c(F)c3)C(=O)N2C1` [PP1090], the “NRAS /KRAS” value in test [1] is given as “AA (a compound having 20 or more is denoted as AA)”. The “HRAS /KRAS” value on HRAS wild-type protein was “A (a compound having 10 or more and less than 20 is denoted as A)”. This compound returned an IC50 in test [2] of 20.9 nM.
